Source: ChEMBL document CHEMBL5108075, “Sialidase Inhibitors with Different Mechanisms” (J Med Chem, 2022)

Test: Inhibition of Trypanosoma cruzi trans-sialidase

IC50: 600 µM
Compound: CC(=O)N[C@H]1[C@H]([C@H](O)[C@H](O)CO)OC(Oc2ccc([N+](=O)[O-])cc2C(F)F)(C(=O)O)C[C@H]1O (stereo partly specified)
